Data reported in patent US6864286B2, “Inhibitors of the EGF-receptor tyrosine kinase and methods for their use” (Parker Hughes Institute, priority 1998, dated 2005).
Entries after “also recorded” stand apart in the source; their conditions may differ.

Legend:
[1] = target: T1, EGFR tyrosine kinase (Homo sapiens, UniProt P00533); assay: Cell-free EGFR immune complex kinase assay; format: biochemical; conditions: EGFR immunoprecipitated from MDA-MB-231 lysates, 1 hour incubation, read-out: EGFR Inhibition IC50
T1 construct: anti-EGFR immunoprecipitates from lysates of MDA-MB-231 human breast cancer cells; endogenous in cells; host or cells: MDA-MB-231 (ATCC HTB-26)
Experimental: (§1) For EGFR immune complex kinase assays, 24-hours after treatment with leflunomide analogs, MDA-MB-231 breast cancer cells were stimulated with 20 ng/mL EGF for 5 minutes, lysed in 1% Nonidet-P-40 buffer, and cell lysates were immunoprecipitated with an anti-EGFR antibody reactive with the sequence Ala^351-Asp^364 of the human EGFR (Upstate Biotechnology Inc. [UBI] Catalog # 05-104) (Uckun, F. M., et al. Clin. Can. Res. 1998, 4, 901). EGFR immune complexes were examined for tyrosine phosphorylation by Western blot analysis, as described by Uckun, F. M., et al. Clin. Can. Res. 1998, 4, 901. All anti-phosphotyrosine Western blots were subjected to densitometric scanning using the automated AMBIS system (Automated Microbiology System, Inc., San Diego, Calif.) and for each time point a % inhibition value was determined by comparing the density ratios of the tyrosine phosphorylated EGFR protein bands to those of the baseline sample and using the formula: % Inhibition=100−100×[Density of tyrosine phosphorylated EGFR band]test sample/[Density of tyrosine phosphorylated EGFR band]baseline control sample. The IC50 values were determined using an Inplot program (Graphpad Software, Inc., San Diego, Calif.).
In other experiments, MDA-MB-231 cells were stimulated with 10 ng/ml EGF prior to immunoprecipitation of the EGFR. EGFR immune complexes were incubated for 1 hour at room temperature with various LFM analogs and tyrosine kinase assays were performed in the presence of [γ-^32P]-ATP, as previously described (Uckun, F. M., et al. Clin. Can. Res. 1998, 4, 901; Narla, R. K., et al. Clin. Can. Res 1998, 1405; Uckun, F. M., et al. Science 1996, 22, 1096; Uckun, F. M., et al. Science 1995, 267, 886). The kinase assay gels were analyzed both by autoradiography and using the BioRad Storage Phosphor Imager System (BioRad, Hercules, Calif.) for quantitative scanning.

[2] = target: T2, insulin receptor kinase (IRK) (Homo sapiens, UniProt P06213); assay: Cell-free IRK immune complex kinase assay; format: biochemical; conditions: for effect on enzymatic activity of IRK: at concentrations as high as 350 μM, IRK from HepG2 cells
T2 construct: IRK was immunoprecipitated from the lysates with an anti-IRb antibody; endogenous in cells; host or cells: HepG2 human hepatoma cells (ATCC)
Experimental: (§2) Immunoprecipitations, immune-complex protein kinase assays, and immunoblotting using the ECL chemiluminescence detection system (Amersham Life Sciences) were conducted as described previously (Vassilev, A., et al. J. Biol. Chem. 1998, in press; Goodman, P. A., et al. J. Biol. Chem. 1998, 273, 17742; Mahajan, S., et al. Mol. Cell. Biol. 1995, 15, 5304; Uckun, F. M., et al. Science 1996, 22, 1096).
Horse radish peroxidase-conjugated sheep anti-mouse, donkey anti-rabbit secondary antibodies and ECL reagents were purchased from Amersham (Oakbrook, Ill.). For insulin receptor kinase (IRK) assays, HepG2 human hepatoma cells grown to approximately 80% confluency were washed once with serum-free DMEM and starved for 3 hour at 37° in a CO2 incubator. Subsequently, cells were stimulated with insulin (Eli Lilly, cat# CP-410;10 units/ml/10×10^6 cells) for 10 minutes at room temperature. Following this IRK activation step, cells were washed once with serum free medium, lysed in NP-40 buffer and IRK was immunoprecipitated from the lysates with an anti-IRb antibody (Santa Cruz, Cat.# sc-711, polyclonal IgG). Prior to performing the immunecomplex kinase assays, the beads were equilibrated with the kinase buffer (30 mM Hepes pH 7.4, 30 mM NaCl, 8 mM MgCl2, 4 mM MnCl2).

[3] = target: T3, HCK (Homo sapiens, UniProt P08631); assay: Cell-free HCK immune complex kinase assay; format: biochemical; conditions: for effect on enzymatic activity of HCK: at concentrations as high as 350 μM, HCK from transfected COS7 cells
T3 construct: expressed in transfected cells; host or cells: COS-7 simian kidney cells
Experimental: as §2
For HCK kinase assays, we used HCK-transfected COS-7 cells. The cloning and expression of HCK in COS-7 cells has been described previously (Saouaf, S. J., et al. J. Biol. Chem. 1995, 270, 27072). The pSV7c-HCK plasmid was transfected into 2×10^6 COS-7 cells using Lipofectamine (GIBCO/BRL), and the cells were harvested 48 hours later. The cells were lysed in NP-40 buffer and HCK was immunoprecipitated from the whole cell lysates with an anti-HCK antibody.

[4] = target: T4, EGFR tyrosine kinase in MDA-MB-231 cells (Homo sapiens, UniProt P00533); assay: Cellular EGFR autophosphorylation, anti-phosphotyrosine Western blot; format: cell-based; conditions: 24 hour exposure
T4 construct: anti-EGFR immunoprecipitates from lysates of MDA-MB-231 human breast cancer cells; endogenous in cells; host or cells: MDA-MB-231 (ATCC HTB-26)
Experimental: as §1
The effects of LFM and LFM analogs on the enzymatic activity of the EGFR tyrosine kinase in breast cancer cells were also examined. […]

T2 sequence (P06213 763-1382 limits assumed): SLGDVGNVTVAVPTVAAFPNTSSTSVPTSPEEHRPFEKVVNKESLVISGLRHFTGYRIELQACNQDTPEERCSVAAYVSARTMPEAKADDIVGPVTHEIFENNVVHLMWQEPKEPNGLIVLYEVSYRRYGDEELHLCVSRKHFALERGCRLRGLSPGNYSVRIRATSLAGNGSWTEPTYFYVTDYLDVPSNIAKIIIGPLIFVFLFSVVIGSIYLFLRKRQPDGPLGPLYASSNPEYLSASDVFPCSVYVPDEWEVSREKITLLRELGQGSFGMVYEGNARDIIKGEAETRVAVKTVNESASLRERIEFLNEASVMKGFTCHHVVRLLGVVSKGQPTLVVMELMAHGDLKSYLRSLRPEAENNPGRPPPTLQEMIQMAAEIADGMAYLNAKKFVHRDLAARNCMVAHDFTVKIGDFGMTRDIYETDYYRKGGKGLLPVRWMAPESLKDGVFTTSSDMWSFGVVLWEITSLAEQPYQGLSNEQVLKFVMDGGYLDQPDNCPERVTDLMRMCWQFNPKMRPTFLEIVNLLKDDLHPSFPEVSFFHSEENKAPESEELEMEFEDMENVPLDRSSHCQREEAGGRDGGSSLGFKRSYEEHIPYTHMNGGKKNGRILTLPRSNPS
T2 sequence (P06213 28-758 partner limits assumed): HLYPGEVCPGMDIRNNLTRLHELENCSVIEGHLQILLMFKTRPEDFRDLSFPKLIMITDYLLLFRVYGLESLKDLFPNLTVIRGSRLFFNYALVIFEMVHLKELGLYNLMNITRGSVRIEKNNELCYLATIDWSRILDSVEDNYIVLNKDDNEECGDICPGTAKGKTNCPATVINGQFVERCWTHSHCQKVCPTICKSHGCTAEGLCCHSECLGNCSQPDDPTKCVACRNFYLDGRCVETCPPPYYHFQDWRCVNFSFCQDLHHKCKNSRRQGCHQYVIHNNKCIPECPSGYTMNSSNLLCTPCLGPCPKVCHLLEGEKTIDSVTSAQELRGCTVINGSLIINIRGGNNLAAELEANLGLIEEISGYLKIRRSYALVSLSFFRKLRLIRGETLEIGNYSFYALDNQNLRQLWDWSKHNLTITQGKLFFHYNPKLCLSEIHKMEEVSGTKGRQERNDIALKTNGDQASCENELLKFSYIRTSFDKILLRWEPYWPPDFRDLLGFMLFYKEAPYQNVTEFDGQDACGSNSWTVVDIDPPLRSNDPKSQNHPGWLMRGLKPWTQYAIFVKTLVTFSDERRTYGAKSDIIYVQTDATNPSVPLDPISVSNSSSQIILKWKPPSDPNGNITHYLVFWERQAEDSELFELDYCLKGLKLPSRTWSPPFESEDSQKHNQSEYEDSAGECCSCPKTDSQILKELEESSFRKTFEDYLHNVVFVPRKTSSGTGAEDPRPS
T3 sequence (P08631 whole entry, species assumed): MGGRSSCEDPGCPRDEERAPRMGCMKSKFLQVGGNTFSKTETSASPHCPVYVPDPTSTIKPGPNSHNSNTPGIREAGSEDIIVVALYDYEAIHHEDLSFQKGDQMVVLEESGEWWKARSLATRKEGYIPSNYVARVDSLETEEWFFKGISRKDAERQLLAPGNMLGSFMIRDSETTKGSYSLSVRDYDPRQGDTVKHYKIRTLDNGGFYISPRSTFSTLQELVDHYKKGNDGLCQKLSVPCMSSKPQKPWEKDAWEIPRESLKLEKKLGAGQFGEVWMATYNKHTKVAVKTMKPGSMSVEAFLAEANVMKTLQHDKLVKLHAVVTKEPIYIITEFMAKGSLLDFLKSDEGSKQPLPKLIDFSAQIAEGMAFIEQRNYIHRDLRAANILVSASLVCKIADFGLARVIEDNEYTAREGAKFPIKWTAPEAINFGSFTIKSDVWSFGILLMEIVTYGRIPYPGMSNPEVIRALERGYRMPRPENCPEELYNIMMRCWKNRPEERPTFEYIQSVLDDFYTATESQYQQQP
T4 sequence (P00533 25-1210): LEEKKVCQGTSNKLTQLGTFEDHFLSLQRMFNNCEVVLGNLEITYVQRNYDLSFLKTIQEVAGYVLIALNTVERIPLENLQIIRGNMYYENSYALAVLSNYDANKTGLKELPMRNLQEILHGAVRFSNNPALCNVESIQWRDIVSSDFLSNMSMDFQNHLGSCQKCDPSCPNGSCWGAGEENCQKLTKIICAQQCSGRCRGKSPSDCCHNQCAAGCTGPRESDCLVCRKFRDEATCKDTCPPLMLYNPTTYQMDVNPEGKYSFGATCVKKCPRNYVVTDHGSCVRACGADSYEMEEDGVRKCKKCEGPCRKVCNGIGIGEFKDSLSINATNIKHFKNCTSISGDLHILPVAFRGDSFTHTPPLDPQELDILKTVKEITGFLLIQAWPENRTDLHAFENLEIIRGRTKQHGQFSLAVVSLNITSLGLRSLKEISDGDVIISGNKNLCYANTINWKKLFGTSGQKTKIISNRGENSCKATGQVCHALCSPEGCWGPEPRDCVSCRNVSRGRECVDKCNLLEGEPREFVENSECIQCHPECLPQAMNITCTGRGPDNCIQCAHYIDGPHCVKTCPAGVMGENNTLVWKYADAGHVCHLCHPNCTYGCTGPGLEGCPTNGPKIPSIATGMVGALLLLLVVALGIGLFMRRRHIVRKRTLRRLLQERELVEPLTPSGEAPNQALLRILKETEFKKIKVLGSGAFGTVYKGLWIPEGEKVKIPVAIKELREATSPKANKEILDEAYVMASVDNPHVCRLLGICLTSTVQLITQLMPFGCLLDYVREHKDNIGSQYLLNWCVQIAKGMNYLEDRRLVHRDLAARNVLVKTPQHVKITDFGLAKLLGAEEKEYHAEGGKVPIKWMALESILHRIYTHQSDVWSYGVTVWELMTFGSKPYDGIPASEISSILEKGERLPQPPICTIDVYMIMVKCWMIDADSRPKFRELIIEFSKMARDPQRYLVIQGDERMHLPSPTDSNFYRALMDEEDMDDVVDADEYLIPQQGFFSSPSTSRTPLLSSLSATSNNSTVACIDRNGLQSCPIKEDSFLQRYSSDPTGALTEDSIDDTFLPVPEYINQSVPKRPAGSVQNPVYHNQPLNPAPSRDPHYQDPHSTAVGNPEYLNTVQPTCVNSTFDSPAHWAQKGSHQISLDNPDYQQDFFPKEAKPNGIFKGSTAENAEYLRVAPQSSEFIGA
T1 sequence (P00533 25-1210): as above

Compound | IC50 [1] [µM] | effect on enzymatic activity of IRK [2] | effect on enzymatic activity of HCK [3] | tyrosine phosphorylation of the EGFR after EGF stimulation [4] | IC50 ([2]; IRK, cell-free, read-out: Inhibition IC50) [µM] | IC50 ([3]; HCK, cell-free, read-out: Inhibition IC50) [µM]
CC(O)=C(C#N)C(=O)Nc1ccc(C(F)(F)F)cc1 [LFM, α-Cyano-β-hydroxy-β-methyl-N-[4-(trifluoromethyl)phenyl]-propenamide, reference compound] | 5.4 | did not affect the enzymatic activity; also recorded: lack of inhibition | did not affect the enzymatic activity; also recorded: lack of inhibition | to a lesser extent | – | –
C/C(O)=C(\C#N)C(=O)Nc1ccc(OC(F)(F)F)cc1 [LFM-A12, α-Cyano-β-hydroxy-β-methyl-N-[4-(trifluoromethoxy)phenyl]-propenamide] | 1.7 | did not affect the enzymatic activity; also recorded: lack of inhibition | did not affect the enzymatic activity; also recorded: lack of inhibition | decreased tyrosine phosphorylation of the EGFR | > 350 | > 350
